Assay results as given in patent publication US20250313653A1, “GUEST/HOST INCLUSION COMPLEXES CONTAINING S-NITROSOGLUTATHIONE AND METHODS OF USE THEREOF” (VIRGINIA COMMONWEALTH UNIVERSITY, priority 2022, published 2025).

Tests used:
[1] = GSNO thermal decomposition via UV-Vis absorption spectroscopy; assay type: physicochemical
Experimental: GSNO was synthesized by nitrosation of reduced L-glutathione in acidified nitrite as previously reported.^52 After collecting GSNO precipitates and washing them using cold water and acetone, GSNO powder was vacuum dried for 4 h and stored at −20° C. GSNO powders were dissolved in phosphate buffer (PB) containing the same mole of Na2HPO4 before the pH adjustment. For example, the formal concentration of Na2HPO4 is 0.1 M when the GSNO concentration is 0.1 M. One hundred μM EDTA was always added to each solution before the solution pH was finally adjusted to 7.4 via NaOH. EDTA is a chelating agent to mask Cu^2+, a S-nitrosothiol catalyst that may exist in solvents and chemicals as an impurity.^53 For solutions with reactive agents, BSA, ascorbic acid, or cysteine was added before the pH adjustment. To prepare GSNO-CD solutions, appropriate amounts of CD powders were dissolved into the GSNO solutions prior to the pH adjustment.
Aqueous GSNO solutions were contained in 1.5 mL disposable polystyrene cuvettes. The cuvette was caped and further sealed with parafilm. The concentrations of GSNO during storage at 37° C. or 25° C. in the dark were monitored by a UV-vis spectrophotometer (Go Direct® Fluorescence/UV-VIS Spectrophotometer) at a wavelength of 545 nm. A 4 W LED white light was used as the light source for the photodecomposition experiment at room temperature. The distance between the light source and the cuvettes was approximately 10 cm. All GSNO decomposition experiments were triplicated, and the GSNO concentration was expressed as mean±standard deviation.

[2] = test system: S. aureus; assay: Agar diffusion assay for the hydrogel containing GSNO; assay type: cell-based; conditions: agar hydrogel on inoculated LB-agar plate, 24-h incubation at 37° C.
Experimental: (§1) Two grams of agar were dissolved in 100 mL of 0.1 M phosphate buffer at pH 7.4 at 80° C. for 3 h with stirring. GSNO solutions at 0.2 M with or without 0.2 M αCD in 0.1 M phosphate buffer at pH 7.4 were prepared separately. Then, 0.5 mL GSNO solution and 0.5 mL dissolved agar were mixed and put into an ice bath to facilitate gelation.
The overnight S. aureus culture was diluted to a density of 0.1 OD600 in PBS. Then, the diluted bacterial inoculum was uniformly spread on an LB-agar plate using a sterile cotton swab. The plate was marked as four separate portions. Forty μL of warm liquid agar with only buffer, GNSO, αCD, or GSNO-αCD (see section 2.5) was added onto a portion of the inoculated plate twice. The agar solution was gelated almost instantly due to the temperature decrease to form a small circular hydrogel area. The bacterial growth was visually examined after 24-h incubation at 37° C.

[3] = Stability of GSNO in agar hydrogel (colour fading); assay type: physicochemical; conditions: 1% agar hydrogel, 0.1 M GSNO, 37° C.
Experimental: as §1

[4] = NO release from silicone rubber tubes filled with lock solutions; assay type: physicochemical; conditions: silicone tube filled with 0.1 M GSNO without or with 0.1 M αCD, 37° C.
Experimental: (§2) The NO release was quantified by an ECO PHYSICS NO analyzer (nCLD 66). […] of castor oil was added to NO release solutions as an antifoam agent when 3 mL GSNO or GSNO-CD solutions were tested in an amber glass cell at 37° C. Humidified air was vacuumed into the solution to carry NO continuously into the chemiluminescence detection chamber at a flow rate of 100 cm^3/min. The solutions were stored in sealed amber glass vials between measurements at 37° C. To monitor the NO release from catheters, solutions were filled into 2.5 cm-long medical-grade silicone tubes (HelixMark® 60-011-07, 1.58 mm ID, 2.41 mm OD) that were scaled on both ends with plastic rods. The filled tubes were placed into the amber glass cell containing 5 mL of 0.01 M PBS with 0.1 mM EDTA (PBSE) at 37° C. N2 was used as the carrier gas at a flow rate of 100 cm^3/min to introduce NO into the analyzer. Filled tubes were stored in 10 mL PBSE at 37° C. in the dark between measurements. The soaking PBSE solution was refreshed after each measurement.

[5] = administrated in humans, dogs, and rats at appropriate doses; cited from earlier work
[6] = NO release from GSNO solutions (chemiluminescence NO analyzer); assay type: physicochemical; conditions: 3 mL of 0.1 M GSNO solution with or without an equal mole of αCD, 37° C.
Experimental: as §2

[7] = 0.1 M GSNO in 0.1 M PB, pH 7.4, 37° C., with 0.15 M αCD and 0.1 M γCD
[8] = 0.1 M GSNO in 0.1 M PB, pH 7.4, 37° C., without CD
[9] = 0.1 M GSNO with 0.15 M αCD and 0.1 M γCD versus GSNO only

For `N[C@@H](CCC(=O)N[C@@H](CSN=O)C(=O)NCC(=O)O)C(=O)O` [GSNO, S-nitrosoglutathione], the GSNO lifetime ([1]; 0.05 M GSNO and 0.15 M αCD in 0.05 M PB, pH 7.4, 37° C.) was 17 days, the GSNO lifetime ([1]; 0.05 M GSNO in 0.05 M PB, pH 7.4, 37° C., without CDs) was 7 days and the “GSNO decay in the first 24 h” value ([1]; 0.1 M GSNO in 0.1 M PB, pH 7.4, 37° C., with 0.1 M αCD) was 39%. For the same molecule, the GSNO lifetime [1, 7] was 15 days, the “first-day decay of GSNO” value [1, 7] was 22% and the GSNO lifetime ([1]; 0.1 M GSNO in 0.1 M PB, pH 7.4, 37° C., with an equal mole (0.1 M) of αCD) was 11 days. For the same molecule, the “GSNO degraded within the first 24 h” value [1, 8] was 66%, the GSNO lifetime [1, 8] was 6 days and the “improvement of GSNO lifetime” value [1, 9] was 2.5 times. For the same molecule, the “improvement of first-day decay” value [1, 9] was 3 times, the “lifetime of 0.1 M GSNO” value ([1]; in the presence of CDs at 37° C.) was “up to 15 days” and the half-life at 0.05 M ([1]; phosphate buffer, room temperature, 0.05 M GSNO in 0.05 M PB pH 7.4, with 0.15 M αCD) was about 20 days. For the same molecule, the “half-life of GSNO relative to only GSNO” value ([1]; room temperature, with 0.15 M αCD) was 4 times, the “S. aureus growth on the hydrogel” value [2] was “grows less bacteria” and the “time the reddish color of GSNO lasts” value ([3]; with an equal mole of αCD) was “more than 6 days”. For the same molecule, the “time in which the reddish color of GSNO fades” value ([3]; without αCD) was “less than 2 days”, the “initial release of NO on day 0” value [4] was 14.8×10^−10 mol cm^−2 min^−1 and the “duration of NO release over 0.1×10^−10 mol cm^−2 min^−1 from the catheter exterior” value ([4]; in pH 7.4 PBSE) was 6 days. The “toxicities in in vivo studies” value [5] was “did not reveal any toxicities” and the “duration of NO release” value [6] was 6 days.
